ChEMBL document CHEMBL1129061, “Inhibition of human glutathione reductase by 10-arylisoalloxazines: crystalline, kinetic, and electrochemical studies” (J Med Chem, 1996)

Target: T1, Glutathione reductase, mitochondrial (Homo sapiens, UniProt P00390)
T1 sequence (P00390 whole entry): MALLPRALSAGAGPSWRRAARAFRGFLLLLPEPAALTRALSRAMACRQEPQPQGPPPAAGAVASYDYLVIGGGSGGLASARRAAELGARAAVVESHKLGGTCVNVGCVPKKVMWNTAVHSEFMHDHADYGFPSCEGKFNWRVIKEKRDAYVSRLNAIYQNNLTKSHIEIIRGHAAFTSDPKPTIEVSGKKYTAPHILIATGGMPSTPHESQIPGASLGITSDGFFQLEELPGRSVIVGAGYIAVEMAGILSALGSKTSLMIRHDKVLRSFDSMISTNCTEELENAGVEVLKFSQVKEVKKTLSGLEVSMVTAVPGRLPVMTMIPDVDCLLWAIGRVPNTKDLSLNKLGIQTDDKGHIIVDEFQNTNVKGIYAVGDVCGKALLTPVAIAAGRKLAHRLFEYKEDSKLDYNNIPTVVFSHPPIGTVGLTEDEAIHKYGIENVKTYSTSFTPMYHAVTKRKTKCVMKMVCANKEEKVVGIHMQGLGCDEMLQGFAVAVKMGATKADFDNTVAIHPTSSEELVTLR
Experiment: Inhibitory activity against human glutathione reductase in presence of 100 uM GSSG

SMILES	IC50 [µM]
Cn1c(=O)nc2n(-c3c(F)c(F)c(F)c(F)c3F)c3ccccc3nc-2c1=O	< 1
Cn1c(=O)nc2n(-c3ccc(Cl)cc3)c3cc(N=[N+]=[N-])ccc3nc-2c1=O	2.5
CCOC(=O)Cn1c(=O)nc2n(-c3cccc(C(F)(F)F)c3)c3ccccc3nc-2c1=O	8
Cn1c(=O)nc2n(-c3cc(Cl)cc(Cl)c3)c3ccccc3nc-2c1=O	< 1
O=C(O)Cn1c(=O)nc2n(-c3cccc(C(F)(F)F)c3)c3ccccc3nc-2c1=O	20
O=c1nc2n(-c3cc(Cl)cc(Cl)c3)c3ccccc3nc-2c(=O)[nH]1	< 1
O=c1nc2n(-c3cccc(C(F)(F)F)c3)c3ccccc3nc-2c(=O)[nH]1	1
Cn1c(=O)nc2n(-c3cc[n+](C)cc3)c3ccccc3nc-2c1=O	40
O=c1nc2n(-c3cc(C(F)(F)F)cc(C(F)(F)F)c3)c3ccccc3nc-2c(=O)[nH]1	3.5
Cn1c(=O)nc2n(-c3cccc(C(F)(F)F)c3)c3ccccc3nc-2c1=O	1
CCOC(=O)Cn1c(=O)nc2n(-c3cc(Cl)cc(Cl)c3)c3ccccc3nc-2c1=O	7
Cn1c(=O)nc2n(-c3ccncc3)c3ccccc3nc-2c1=O	3
Cn1c(=O)nc2n(-c3ccccc3)c3ccccc3nc-2c1=O	2
O=C(O)Cn1c(=O)nc2n(-c3cc(Cl)cc(Cl)c3)c3ccccc3nc-2c1=O	14
Cn1c(=O)nc2n(-c3ccc(Cl)cc3)c3cc(F)ccc3nc-2c1=O	1
Cn1c(=O)nc2n(-c3ccc(Cl)cc3)c3ccccc3nc-2c1=O	< 1
CCOC(=O)Cn1c(=O)nc2n(-c3ccc(Cl)cc3)c3ccccc3nc-2c1=O	18
O=c1nc2n(-c3c(F)c(F)c(F)c(F)c3F)c3ccccc3nc-2c(=O)[nH]1	3.5
Cn1c(=O)nc2n(-c3cc(C(F)(F)F)cc(C(F)(F)F)c3)c3ccccc3nc-2c1=O	5
Cn1c(=O)nc2n(-c3cccnc3)c3ccccc3nc-2c1=O	8
Cn1c(=O)nc2n(-c3cccc4cc5ccccc5cc34)c3ccccc3nc-2c1=O	4
Cn1c(=O)nc2n(-c3cccc4ccccc34)c3ccccc3nc-2c1=O	2
O=C(O)Cn1c(=O)nc2n(-c3cc(C(F)(F)F)cc(C(F)(F)F)c3)c3ccccc3nc-2c1=O	25
CCOC(=O)Cn1c(=O)nc2n(-c3cc(C(F)(F)F)cc(C(F)(F)F)c3)c3ccccc3nc-2c1=O	100
O=c1nc2n(-c3ccc(Cl)cc3)c3ccccc3nc-2c(=O)[nH]1	< 1
O=C(O)Cn1c(=O)nc2n(-c3ccc(Cl)cc3)c3ccccc3nc-2c1=O	12
